Laboratory results as given in patent publication US20250195510A1, “NOVEL METHODS” (priority 2022, published 2025).

How the values were obtained:
[1] = system: Sprague-Dawley rats; experiment: Novelty Suppressed Feeding Test (NSFT); format: in vivo, rat; conditions: naïve rats, Luma 1 mg/kg IP days 1 and 3, no LPS; control 657.8
Description: (§1) Behavioral Evaluation. All behavioral tests are performed in the morning with adult male Sprague-Dawley rats (n=9-11 per group for the experiments with LPS, and n=13-14 per group for the naïve rats).
Novelty Suppressed Feeding Test (NSFT). This test measures consumption of a familiar food in a novel environment, relying on rodents' aversion to eating in a novel environment after a period of food deprivation (Ramaker and Dulawa, “Identifying fast-onset antidepressants using rodent models,” Mol. Psychiatry 22:656-665 (2017)). Rats are food-deprived overnight and placed in an open field (76.5×76.5×40 cm^3) with a small amount of food pellets (6 pellets total). At the time of the test, rats are exposed to the open field for the first time (novelty) and allowed to explore it for a maximum of 15 minutes under red light. The latency for the animal to approach the food pellets and take its first bite is manually scored. A home cage feeding test (HCFT) is performed afterwards to ensure latency measured in NSFT is not a matter of difference in hunger. A home cage food intake analysis evaluated the amount of food eaten (in grams) over a period of 10 minutes following the end of the entire test session.
Basal levels of anxiety are also tested using 2 commonly used tests, NSFT and novelty induced hypophagia (NIH), in the absence of LPS. […]

[2] = system: inflammatory biomarkers in PBMCs; experiment: Post-hoc analysis of inflammatory biomarkers in PBMCs, phase 3 trial, schizophrenia with co-morbid depression; format: in vivo, human; conditions: Day 28, 60 mg lumateperone tosylate once daily
Description: A randomized, double-blind, placebo-controlled, phase 3 clinical trial was conducted with 450 patients with schizophrenia, aged 18 to 60 years, who were experiencing an acute exacerbation of psychosis. Patients were included if they were experiencing an acute exacerbation of psychosis, defined as a total score on the Brief Psychiatric Rating Scale of […] or higher, with a score of 4 or higher on 2 or more positive symptoms, and onset of the acute episode within 4 weeks of screening. Patients were required to have a score of 4 or higher, indicating moderate to severe disease severity, on the Clinical Global Impression-Severity of Illness (CGI-S) at screening and baseline. Severity of illness was confirmed at baseline by a Positive and Negative Syndrome Scale (PANSS) total score of 70 or higher, indicating moderate to extreme symptoms of schizophrenia. A subgroup of these patients experienced co-morbid depression symptoms at baseline (defined as having a Calgary Depression Scale for Schizophrenia (CDSS) score greater than 6 at baseline). Full details of the clinical study were reported in Correll et al., JAMA Psychiatry, 77 (4): 349-358 (2020).
Patients were randomized 1:1:1 (150 patients in each arm) to receive, once daily for 28 days, cither 60 mg lumatepcrone tosylate (42 mg free base), 40 mg lumatepcrone tosylate (28 mg free base), or placebo.
Using blood samples stored from the study, a post-hoc analysis of inflammatory biomarkers in PBMCs from the patients with schizophrenia and co-morbid depression is conducted. […] Day 0 samples are available for 20 patients, while day 28 samples are available only for 18 patients. Mean baseline CDSS is 10.0, and mean baseline PANSS total score is 88.7 in the selected patients.
Samples were processed to isolate PBMC according to standard procedures using the Ficoll-Paque method. Statistical analysis was performed using the paired t-test, two-tailed. Samples were tested for C-reactive protein (CRP), serum amyloid A (SAA), soluble ICAM-1, soluble VCAM-1, IL-1β, TNF-α, IL-6, IL-10, IL-2, IL-8, IL-13, and IFN-γ. ICAM-1 and VCAM-1 are expressed by the vascular endothelium, macrophages, and lymphocytes. Upon cytokine stimulation, their concentrations greatly increase. ICAM-1 can be induced by IL-1ß and TNF. ICAM and VCAM proteins may also be involved in pathogen transit into CNS.
The results are shown in the table below (biomarker levels expressed in ng/ml; some values of N are less than the patient totals due to samples with levels of biomarker below the minimum for quantification): […]

[3] = system: Serum cytokine concentration; experiment: Serum cytokine protein (Multiplex MSD V-Plex) after LPS and lumateperone; format: in vivo, mouse
Description: All other reagents are obtained in the highest purity available from Sigma-Aldrich (St. Louis, MO) unless otherwise noted. […] Sigma-Aldrich, ref #0127: B8) diluted in 0.9% injectable saline while control group animals receive injections of all vehicles matching the experimental conditions. […] Tissue Collection. […] Rats are euthanized 18 hours after LPS injection for sample collection. Hippocampi from mice and rats are rapidly dissected under RNAse-free conditions and placed in 1.5 mL Eppendorf tubes. When appropriate, samples are snap frozen in liquid nitrogen prior to storage at −80° C. until further analysis. […] Multiplex Assays. […] All samples are run in duplicates or triplicates according to manufacturer instructions and analyzed with MSD Discovery Workbench software (Meso Scale Diagnostics). […] An additional experimental group receiving an injection with lumateperone alone is included as an additional control. Protein concentration is measured using the Multiplex MSD assay V-Plex technology. Results are expressed in pg/mL, except for IL-6, which is measured in ng/mL.

[4] = system: Sprague-Dawley rats; experiment: Open Field Test (OFT), locomotion; format: in vivo, rat
Description: as §1
Open Field Test (OFT). Rats are placed in an open field box (76.5×76.5×40 cm^3) under dim lighting and locomotor activity over a 10 minute period is measured using ANY-Maze Software (Stoelting Co., Wood Dale, IL).

**Q.** What does the source list for `CN1CCN2c3c(cccc31)[C@@H]1CN(CCCC(=O)c3ccc(F)cc3)CC[C@@H]12` [Lumateperone, 4-((6bR,10aS)-3-methyl-2,3,6b,9,10,10a-hexahydro-1H-pyrido[3′,4′: 4,5]pyrrolo[1,2,3-de]quinoxaline-8 (7H)-yl)-1-(4-fluorophenyl)-1-butanone]?
**A.** NSFT latency to feed [1]: 507.9 s; IL-10 level in PBMC, Median ([2]; Day 0 0.07): 0.21 ng/mL; IL-10 level in PBMC, Average ([2]; Day 0 0.09): 2.14 ng/mL; IL-2 level in PBMC, Median ([2]; Day 0 0.17): 0.25 ng/mL; IL-2 level in PBMC, Average ([2]; Day 0 0.18): 0.37 ng/mL; IL-6 level in PBMC, Median ([2]; Day 0 0.18): 0.32 ng/mL; IL-6 level in PBMC, Average ([2]; Day 0 0.20): 0.55 ng/mL; TNF-α level in PBMC, Average ([2]; Day 0 0.27): 0.83 ng/mL; TNF-α level in PBMC, Median ([2]; Day 0 0.27): 0.43 ng/mL; IFN-γ level in PBMC, Median ([2]; Day 0 1.01): 0.71 ng/mL; IFN-γ level in PBMC, Average ([2]; Day 0 1.11): 0.86 ng/mL; IL-13 level in PBMC, Median ([2]; Day 0 1.11): 1.56 ng/mL; IL-13 level in PBMC, Average ([2]; Day 0 1.31): 2.38 ng/mL; IL-1β level in PBMC, Median ([2]; Day 0 1.65): 0.74 ng/mL; IL-1β level in PBMC, Average ([2]; Day 0 1.76): 1.01 ng/mL; IL-8 level in PBMC, Median ([2]; Day 0 36.3): 44.0 ng/mL; sVCAM-1 level in PBMC, Median ([2]; Day 0 60.1): 42.0 ng/mL; CRP level in PBMC, Median ([2]; Day 0 61.3): 38.0 ng/mL; IL-8 level in PBMC, Average ([2]; Day 0 74.5): 105.3 ng/mL; CRP level in PBMC, Average ([2]; Day 0 78.8): 50.5 ng/mL; sVCAM-1 level in PBMC, Average ([2]; Day 0 78.9): 49.1 ng/mL; sICAM-1 level in PBMC, Median ([2]; Day 0 136.9): 83.6 ng/mL; sICAM-1 level in PBMC, Average ([2]; Day 0 184.8): 119.6 ng/mL; SAA level in PBMC, Median ([2]; Day 0 233.6): 147.3 ng/mL; SAA level in PBMC, Average ([2]; Day 0 286.9): 157.9 ng/mL; Serum IL-1b concentration ([3]; LPS 500 μg/kg + Luma 3 mg/kg, LPS alone 6.27): 2.69 pg/mL; Serum IL-6 concentration ([3]; LPS 500 μg/kg + Luma 3 mg/kg, LPS alone 14.52): 1.49 ng/mL; Serum TNF-alpha concentration ([3]; LPS 500 μg/kg + Luma 3 mg/kg, LPS alone 335.3): 56.33 pg/mL; Serum IL-10 concentration ([3]; LPS 500 μg/kg + Luma 3 mg/kg, LPS alone 980.4): 1014.3 pg/mL; Serum IL-6 concentration ([3]; Luma 3 mg/kg alone, no LPS, saline only 0.51): 0.09 ng/mL; Serum IL-1b concentration ([3]; Luma 3 mg/kg alone, no LPS, saline only 1.32): 1.47 pg/mL; Serum TNF-alpha concentration ([3]; Luma 3 mg/kg alone, no LPS, saline only 14.08): 9.38 pg/mL; Serum IL-10 concentration ([3]; Luma 3 mg/kg alone, no LPS, saline only 24.80): 48.93 pg/mL; OFT locomotion ([4]; naïve rats, Luma 1 mg/kg IP days 1 and 3, control 17.2): 32.8 m; OFT locomotion (distance travelled) ([4]; open field track length, rats, LPS 1 mg/kg SC + Luma 1 mg/kg IP, control 13.29, LPS + Vehicle 12.81): 12.27 meters
